Data set [1] concerns ob/ob mice. The data set is described as follows: Daily N-AcGIP(PEG) for 14 days in 12 weeks old ob/ob mice. It counts as in vivo. How it is done: FIG. 27 is a pair of line graphs showing the effects of daily N-AcGIP(PEG) administration on food intake and body weight. N-AcGIP(PEG) (25 nmoles/kg/day) or saline vehicle (control) were administered for the 14-day period. Values are mean±SEM for 8 mice.
FIG. 28 is a pair of line graphs showing changes of plasma glucose and insulin after daily treatment of ob/ob mice with N-AcGIP(PEG) (25 nmoles/kg/day) or saline vehicle (control) for 14 days. Values are mean±SEM for 8 mice.
FIG. 29 is a set of line graphs showing the effects of daily N-AcGIP(PEG) administration on glucose tolerance and plasma insulin response to glucose. Tests were conducted after 14 daily injections of either N-AcGIP(PEG) ([…]) or saline vehicle (control). Glucose (18 mmoles/kg) was administered by intraperitoneal injection. Plasma glucose and insulin AUC values for 0-60 min post injection are shown in the right panels. Values are mean±SEM for 8 mice. *p<0.05 compared to control.
FIG. 30 is a line graph and a bar graph showing the effects of daily N-AcGIP(PEG) administration on insulin sensitivity. Tests were conducted after 14 daily injections of either N-AcGIP(PEG) (25 nmoles/kg/day) or saline vehicle (control). Insulin (50 U/kg) was administered by intraperitoneal injection. Plasma glucose AUC values from baseline for 0-60 min post injection are shown in the right panels. Values are mean±SEM for 8 mice. *p<0.05 compared to control.

Data set [2] deals with dipeptidyl peptidase IV (DPP IV; EC 3.4.15.5). The data set is described as follows: in the circulation. To be noted: cited from earlier work.
Data set [3] concerns dipeptidyl peptidase IV. The data set is described as follows: purified porcine dipeptidyl peptidase IV (5 mU) in 50 mM triethanolamine-HCl (pH 7.8). Particulars: 37° C., up to 24 hours.
Data set [4] concerns Normal mice. The data set is described as follows: Intraperitoneal glucose tolerance with peptide in younger versus older normal mice. The class given is in vivo. To be noted: 25 nmol/kg i.p. with glucose 18 mmol/kg, AUC 0-60 min. On the procedure: Body weight and food intake were recorded over five days before commencement of metabolic tests. Intraperitoneal (i.p.) glucose tolerance (18 mmol/kg body weight) was assessed in non-fasted animals.

Data set [5] deals with BRIN-BD11 cells. The data set can be described thus: Insulin release from BRIN-BD11 cells, GIP alone and combined with antidiabetic drugs. The class given is cell-based. Particulars: 5.6 mM glucose, 20 minutes; for insulin secretion from BRIN-BD11 cells, agent alone: GIP 10 nM, drugs 25-200 μM; for insulin secretion, combination of agent with GIP compared with either agent alone: 10 nM GIP plus drug. How it is done: Acute insulin-release studies were carried out using clonal pancreatic BRIN-BD11 cells, whose origin, characteristics and secretory responsiveness have been outlined in detail elsewhere (Irwin, N. et al., 2005, Biol. Chem. (In Press)). BRIN-BD11 cells were seeded into 24-multiwell plates at a density of 10^5 cells per well and allowed to attach overnight at 37° C.

Data set [6] concerns ob/ob mice. The data set can be described thus: Acute glucose lowering and insulin release, peptide given i.p. with glucose to 18 hour fasted ob/ob mice. Particulars: 25 nmol/kg i.p. with glucose 18 mmol/kg.
Method: Obese diabetic (ob/ob) mice derived from the colony maintained at Aston University, UK (23) were used at 12-16 weeks of age. […] Drinking water and standard rodent maintenance diet (Trouw Nutrition, Cheshire, UK) were freely available.
Food intake and body weight were recorded daily from 5 days before commencement of the treatment regimes. Plasma glucose and insulin concentrations (10:00 h) were monitored at 2-4 day intervals. […] All acute tests were commenced at 10:00 h. […] Serum samples were taken for determination of glucagon concentrations. All other blood samples were collected from the cut tip of the tail vein of conscious mice into chilled fluoride/heparin coated glucose microcentrifuge tubes (Sarstedt, Nümbrecht, Germany) at the times indicated in the Figures. Blood samples were immediately centrifuged using a Beckman microcentrifuge (Beckman Instruments, Galway, Ireland) for 30 seconds at 13,000×g. The resulting plasma was then aliquoted into fresh tubes and stored at −20° C. prior to glucose and insulin determinations.
Data set [7] has as its system ob/ob mice. The data set is described as follows: 24 hour plasma glucose and insulin profile after a single dose in non-fasted ob/ob mice. It counts as in vivo. To be noted: single 12.5 nmol/kg i.p. From the text: Dose of 12.5 nmol kg^−1 was chosen to evaluate the longer-term duration of action of a single dose of native or fatty acid derivatised GIP in non-fasted ob/ob mice.

The target in data set [8] is purified porcine dipeptidyl peptidase IV (Sus scrofa, UniProt P22411). The data set is described as follows: DPP IV degradation, % intact peptide by HPLC. The class given is in vitro ADME. To be noted: 37° C., pH 7.8. How it is done: (§1) HPLC peak area data were used to calculate the percentage intact peptide remaining at the various time points during the incubation.

In data set [9] the target is dipeptidyl peptidase IV (Sus scrofa, UniProt P22411). The data set is described as follows: DPP IV degradation, % intact peptide by HPLC. It counts as in vitro ADME, porcine. Particulars: pig, purified porcine dipeptidyl peptidase IV (DPP IV), 37° C., pH 7.8. On the procedure:
as §1

Data set [10] concerns the target purified porcine dipeptidyl peptidase IV (porcine, UniProt P22411 38-766, limits assumed). The data set can be described thus: cell-based or functional assay.
The mark [11] stands for this setting: after 14 days, glucose 18 mmol/kg i.p.

No end group written: not given here. *: point of attachment. Palmitoyl = CCCCCCCCCCCCCCCC(=O)*

purified porcine dipeptidyl peptidase IV (porcine, UniProt P22411 38-766, limits assumed), sequence (P22411 38-766 limits assumed): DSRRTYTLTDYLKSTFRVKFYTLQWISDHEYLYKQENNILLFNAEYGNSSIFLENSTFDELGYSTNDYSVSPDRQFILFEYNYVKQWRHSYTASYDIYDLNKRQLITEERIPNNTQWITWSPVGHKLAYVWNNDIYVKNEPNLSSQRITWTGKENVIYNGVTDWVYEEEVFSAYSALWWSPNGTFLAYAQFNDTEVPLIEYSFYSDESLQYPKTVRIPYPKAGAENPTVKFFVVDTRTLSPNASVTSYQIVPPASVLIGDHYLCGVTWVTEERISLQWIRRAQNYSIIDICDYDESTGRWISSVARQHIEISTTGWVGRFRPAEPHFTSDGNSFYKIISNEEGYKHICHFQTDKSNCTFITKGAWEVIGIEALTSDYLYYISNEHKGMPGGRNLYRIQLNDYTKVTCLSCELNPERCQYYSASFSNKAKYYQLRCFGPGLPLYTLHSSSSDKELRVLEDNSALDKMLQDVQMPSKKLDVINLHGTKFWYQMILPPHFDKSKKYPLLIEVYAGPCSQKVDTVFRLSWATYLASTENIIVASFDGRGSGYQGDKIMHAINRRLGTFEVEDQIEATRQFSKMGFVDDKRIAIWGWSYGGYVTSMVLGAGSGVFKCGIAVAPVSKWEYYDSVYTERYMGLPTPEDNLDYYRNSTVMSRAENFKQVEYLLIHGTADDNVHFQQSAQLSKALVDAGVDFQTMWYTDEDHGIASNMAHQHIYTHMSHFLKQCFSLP
purified porcine dipeptidyl peptidase IV (Sus scrofa, UniProt P22411), sequence (P22411 whole entry): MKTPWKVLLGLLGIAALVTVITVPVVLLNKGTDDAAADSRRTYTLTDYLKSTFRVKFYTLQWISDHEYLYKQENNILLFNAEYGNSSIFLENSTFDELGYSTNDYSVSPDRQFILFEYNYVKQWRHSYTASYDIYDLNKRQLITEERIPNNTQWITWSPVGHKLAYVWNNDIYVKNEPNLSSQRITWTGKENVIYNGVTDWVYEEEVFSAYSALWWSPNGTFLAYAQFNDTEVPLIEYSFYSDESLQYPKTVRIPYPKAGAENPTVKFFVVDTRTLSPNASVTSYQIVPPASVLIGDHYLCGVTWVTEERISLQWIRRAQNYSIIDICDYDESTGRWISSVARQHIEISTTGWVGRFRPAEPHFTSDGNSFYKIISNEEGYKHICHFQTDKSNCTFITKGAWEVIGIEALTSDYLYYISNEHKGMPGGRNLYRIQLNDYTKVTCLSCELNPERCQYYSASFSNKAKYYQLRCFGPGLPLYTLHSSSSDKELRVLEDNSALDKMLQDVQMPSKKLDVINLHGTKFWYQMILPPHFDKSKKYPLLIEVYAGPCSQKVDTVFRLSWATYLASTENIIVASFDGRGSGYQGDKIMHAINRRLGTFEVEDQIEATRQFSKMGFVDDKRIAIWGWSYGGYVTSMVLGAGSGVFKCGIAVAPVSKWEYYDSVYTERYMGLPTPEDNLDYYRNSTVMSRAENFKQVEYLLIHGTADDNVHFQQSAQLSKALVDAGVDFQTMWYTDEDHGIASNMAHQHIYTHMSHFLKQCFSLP
dipeptidyl peptidase IV (Sus scrofa, UniProt P22411), sequence (P22411 whole entry): as above

As for “N-AcGIP(PEG): GIP molecule in which PEG is attached to the C-terminus and the Acetyl group to the opposite end”, in data set [1] (25 nmoles/kg/day, 14 days), the circulating insulin entry was “without appreciable change”, the “effect on body weight” value is listed as “did not affect”, the “effect on food intake” value is recorded as “did not affect” and the non-fasting glucose entry is reported as “decreased”. In addition, in [1] (setting [11]), the “glucose tolerance after intraperitoneal glucose load” value is recorded as “improved glucose tolerance”; the “overall glycaemic response after intraperitoneal glucose load” value was “reduced the overall glycaemic response”; the “plasma insulin concentrations and insulin response to intraperitoneal glucose” value is on record as “enhanced”. The “plasma glucose after administration of insulin (insulin sensitivity)” value in [1] (after 14 days, insulin 50 U/kg i.p.) is on record as “lower plasma glucose concentrations”.
Turning to “yaegtfisdysiamdkihqqdfvnwllaqkgkkndwkhnitq”, the fragment found result in data set [2] is “GIP(3-42), major”; in data set [3] it was “GIP(3-42), major, 2 hours”.
The term amount remaining denotes the share of the starting amount still present when the sample was taken. In the case of `CC[C@H](C)[C@H](NC(=O)[C@H](CO)NC(=O)[C@H](Cc1ccc(O)cc1)NC(=O)[C@H](CC(=O)O)NC(=O)[C@H](CO)NC(=O)[C@@H](NC(=O)[C@H](Cc1ccccc1)NC(=O)[C@@H](NC(=O)CNC(=O)[C@H](CCC(=O)O)NC(=O)[C@H](C)NC(=O)[C@@H](N)Cc1ccc(O)cc1)[C@@H](C)O)[C@@H](C)CC)C(=O)N[C@@H](C)C(=O)N[C@@H](CCSC)C(=O)N[C@@H](CC(=O)O)C(=O)N[C@@H](CCCCN)C(=O)N[C@H](C(=O)N[C@@H](Cc1c[nH]cn1)C(=O)N[C@@H](CCC(N)=O)C(=O)N[C@@H](CCC(N)=O)C(=O)N[C@@H](CC(=O)O)C(=O)N[C@@H](Cc1ccccc1)C(=O)N[C@H](C(=O)N[C@@H](CC(N)=O)C(=O)N[C@@H](Cc1c[nH]c2ccccc12)C(=O)N[C@@H](CC(C)C)C(=O)N[C@@H](CC(C)C)C(=O)N[C@@H](C)C(=O)N[C@@H](CCC(N)=O)C(=O)N[C@@H](CCCCN)C(=O)NCC(=O)N[C@@H](CCCCN)C(=O)N[C@@H](CCCCN)C(=O)N[C@@H](CC(N)=O)C(=O)N[C@@H](CC(=O)O)C(=O)N[C@@H](Cc1c[nH]c2ccccc12)C(=O)N[C@@H](CCCCN)C(=O)N[C@@H](Cc1c[nH]cn1)C(=O)N[C@@H](CC(N)=O)C(=O)N[C@H](C(=O)N[C@H](C(=O)N[C@@H](CCC(N)=O)C(=O)O)[C@@H](C)O)[C@@H](C)CC)C(C)C)[C@@H](C)CC` [Native GIP, reference compound], in data set [4], the “overall plasma glucose response in older mice compared to younger controls” value was “significantly elevated” and the “overall plasma insulin response in older mice compared to younger controls” value is given as “significantly less”. Further, in data set [5], the “insulin secretion from BRIN-BD11 cells, agent alone” value is “stimulated insulin secretion”. In data set [6], the “insulin release compared to glucose alone” value is “significantly greater”; the “plasma glucose concentrations and AUC (0-60 min) compared to glucose alone” value was “neither this nor the overall AUC glucose excursion achieved significance”. In addition, the “effect on plasma glucose over 24 hours” value in [7] is “transient, but not significant effect”. Also, the “% Intact peptide remaining after time (h) 0” value in [8] (0 h incubation with DPP IV (5 mU)) amounted to 100%. The “% Intact peptide remaining after time (h) 2” value in [8] (2 h incubation with DPP IV (5 mU)) was found to be 52±3%. Besides, the “% Intact peptide remaining after time (h) 8” value in data set [8] (8 h incubation with DPP IV (5 mU)) was “completely degraded”. Also, in data set [9] (2 h incubation with DPP IV (5 mU), read-out: % Intact peptide remaining after time (h) 2), the amount remaining at 2 h, 2 mM turned out to be 52 ± 3%. Moreover, the share remaining at 8 h, 2 mM in data set [9] (8 h incubation with DPP IV (5 mU), read-out: % Intact peptide remaining after time (h) 8) was found to be 0%. The amount remaining at 24 h, 2 mM in data set [9] (24 h incubation with DPP IV (5 mU), read-out: % Intact peptide remaining after time (h) 24) was 0%.
As for `CCCCNC(=O)NS(=O)(=O)c1ccc(C)cc1` [tolbutamide], in data set [5], the “insulin secretion, combination of agent with GIP compared with either agent alone” value is “significant potentiation” and the “insulin secretion from BRIN-BD11 cells, agent alone” value is “stimulated insulin secretion”.
The corresponding values for `COc1ccc(Cl)cc1C(=O)NCCc1ccc(S(=O)(=O)NC(=O)NC2CCCCC2)cc1` [glibenclamide] are “significant potentiation” and “stimulated insulin secretion”.
The corresponding values for `CC(C)[C@H]1CC[C@H](C(=O)N[C@H](Cc2ccccc2)C(=O)O)CC1` [nateglinide] are “significant potentiation” and “stimulated insulin secretion”.
In the case of YAEGTFISDYSIAMDKIHQQDFVNWLLAQKGKKNDWK(Palmitoyl)HNITQ [GIP(LysPAL^37)], in data set [10], the “% Intact peptide remaining after time (h): 0” value amounted to 100%, the “% Intact peptide remaining after time (h): 2” value is 100%, the “% Intact peptide remaining after time (h): 8” value turned out to be 100% and the “% Intact peptide remaining after time (h): 24” value (shortened to “% Intact peptide remaining … 24”) is 100%.
In the case of YAEGTFISDYSIAMDKIHQQDFVNWLLAQKGKKNDWKHNITQ (C-16 palmitoyl group on the epsilon amino group of Lys 16) [GIP(LysPAL^16)], in [10], the “% Intact peptide remaining after time (h): 0” value worked out at 100%, the “% Intact peptide remaining after time (h): 2” value amounted to 100%, the “% Intact peptide remaining after time (h): 8” value turned out to be 100% and the “% Intact peptide remaining … 24” value was found to be 100%.
Regarding YAEGTFISDYSIAMDKIHQQDFVNWLLAQKGKKNDWKHNITQ [native GIP (glucose-dependent insulinotropic polypeptide; gastric inhibitory polypeptide), GIP(1-42)], in [10], the “% Intact peptide remaining after time (h): 0” value came out at 100%, the “% Intact peptide remaining after time (h): 2” value is 52%, the “% Intact peptide remaining after time (h): 8” value is 0% and the “% Intact peptide remaining … 24” value stood at 0%.
